The values that follow come from PMC12325182, “Discovery of novel and potent celastrol derivatives as PRDX1 inhibitors for cancer therapy through structure-based virtual screening” (Frontiers in Pharmacology, 2025).

Experiment [1] has as its target T1, PRDX1 (Homo sapiens, UniProt Q06830).
T1 sequence (Q06830 1-199): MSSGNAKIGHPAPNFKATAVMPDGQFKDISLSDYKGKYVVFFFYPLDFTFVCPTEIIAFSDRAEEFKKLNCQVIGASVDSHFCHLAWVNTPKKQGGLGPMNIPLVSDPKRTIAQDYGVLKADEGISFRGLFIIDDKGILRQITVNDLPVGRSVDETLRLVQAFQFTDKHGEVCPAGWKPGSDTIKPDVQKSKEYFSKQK
The experiment in a line: PRDX1 inhibition assay. The experiment is classed as biochemical. The procedure: The cells were purchased from the American Type Culture Collection (ATCC) (Manassas, VA, United States). Cells were cultured in RPMI-1640 medium supplemented with 10% FBS, 50 units/mL penicillin, and 50 μg/mL streptomycin, and maintained at 37°C in a 5% CO2 humidified culture environment. CPs 1-5 were purchased from WuXi AppTec. Human PRDX1 proteins were purchased from Abcam (Cambridge, MA, United States).
First, […] buffer (20 mM HEPES, 5 mM EDTA, 5 μM cofactor A, 2 μM cofactor B, and 300 μM NADPH) was added to a 96-well plate. The test compounds at the designated concentration (0.02–2 nM, with 1.5-fold dilution) were incubated with PRDX1 at 37°C for 25 min, and then the co-incubated mixture was added to each well to a final concentration of 200 nM PRDX1. Finally, 200 μM H2O2 was added to each well to initiate the enzyme reaction cycle. The oxidation of NADPH was determined by the absorption value at 340 nm. Read plate values for 90 s for one cycle and repeat for 20 cycles. The positive control (celastrol, concentrations 0.06–64 μM) was tested in parallel under identical experimental conditions. Three independent replicate experiments were performed.

Another experiment relates to A549 lung cancer cells. The experiment in a line: MTT assay. Type of experiment: cell-based. The following applies: Homo sapiens, read-out: IC50 (μM) A549. The procedure: (§1) Cells were seeded in 96-well plates at 5 ×10^4 cells/well and cultured overnight at 37°C under 5% CO2. After medium removal, cells were treated with serially diluted compounds (0.04–163.84 μM) or vehicle control (0.1% DMSO) and incubated for 72 h. Subsequently, 20 μL of MTT solution (5 mg/mL) was added to each well, and incubation was continued for 4 h. Add 150 μL of DMSO and shake for 10 min to fully dissolve the crystal. Finally, the absorbance was measured at 570 nm using a microplate reader. Cell viability was calculated as (ODcompound - ODblank)/(ODvehicle - ODblank) × 100%. The half inhibitory concentration (IC50) was calculated from the dose-response curve using Prism 8.0 software. Three independent replicate experiments were performed.

The test system of experiment [2] is BEAS-2B normal lung cells. The experiment in a line: MTT assay. The experiment is classed as cell-based. The following applies: Homo sapiens, 72 h. The procedure: as §1
For orientation: Tetrazolium assays rely on reduction of a dye to a coloured formazan, in cell work by metabolically active cells.

The target of experiment [3] is T1, PRDX1. Briefly: MST assay. Type of experiment: binding. The procedure:
The MST assays were carried out in a buffer composed of 50 mM Tris, 200 mM NaCl, and 0.1% (v/v) TWEEN20. PRDX1 was tagged with the MO-L011 protein labeling kit (RED-NHS second Generation). The diluted compounds were combined with the tagged PRDX1 protein and allowed to stand at room temperature for 5 minutes. Subsequently, the reaction mixture was loaded into capillaries, and measurements were taken using a Monolith NT.115 instrument.

Experiment [4] relates to HEK293 (embryonic kidney cells). Briefly: MTT assay. The experiment is classed as cell-based. The following applies: Homo sapiens, HEK293, 72 h, read-out: IC50 (μM) HEK293. The procedure:
as §1

For experiment [5], the system named is HaCaT (immortalised keratinocytes). Briefly: MTT assay. The experiment is classed as cell-based. The following applies: Homo sapiens, 72 h, normal cells, mean ± SD, n = 3. The procedure:
as §1

The test system of experiment [6] is HepG2 (hepatocellular carcinoma cells). Briefly: MTT assay. The experiment is classed as cell-based. The following applies: Homo sapiens, HepG2, 72 h, read-out: IC50 (μM) HepG2. The procedure: as §1
The next experiment relates to LO2 (normal liver cells). Briefly: MTT assay. The experiment is classed as cell-based. The following applies: Homo sapiens, 72 h, read-out: IC50 (μM) LO2. The procedure:
as §1

Experiment [7] deals with MCF-7 (breast adenocarcinoma cells). Briefly: MTT assay. Type of experiment: cell-based. The following applies: Homo sapiens, MCF7, 72 h, read-out: IC50 (μM) MCF-7. The procedure: as §1
[8] abbreviates: mean ± SD, n = 3, read-out: PRDX1 (IC50).
Setting [9] is: A549, MTT, 72 h, mean ± SD, n = 3.
Setting [10] is: MTT, normal lung cells, mean ± SD, n = 3, read-out: IC50 (μM) BEAS-2B.

Structures are written as SMILES. Where two headings read alike, the source gives them in different places.

Take `CC1=C(CC(=O)/C=C/C2=CC(CO)=CC2)C(=O)C=C2C1=CC=C1[C@@]2(C)CC[C@@]2(C)C3C[C@](C)(C(=O)NCc4cccc(C(O)C(O)O)c4)CC[C@]3(C)CC[C@]12C` (stereo partly drawn) [CP2]: the figures for the IC50 (at PRDX1 [1] (setting [8]); with A549 lung cancer cells (setting [9]); in experiment [2] (setting [10])) were 0.17 ± 0.02 nM, 0.46 ± 0.03 µM and greater than 100 µM, respectively.

In the case of `Cc1ncc(CNC(=O)[C@]2(C)CC[C@]3(C)CC[C@]4(C)C5=CC=C6C=C(CC(=O)/C=C/c7cccc(CO)c7)C(=O)C=C6C5CC[C@@]4(C)C3C2)nc1C(C)C(O)O` (stereo partly drawn) [CP3], the IC50 is 0.25 ± 0.01 nM at PRDX1 [1] (setting [8]), 0.57 ± 0.05 µM in the experiment on A549 lung cancer cells (setting [9]) and greater than 100 µM in [2] (setting [10]).

For the compound `C[C@@]1(C(=O)NCc2cccc(CC(O)O)c2)CC[C@]2(C)CC[C@]3(C)C4=CC=C5C=C(CC(=O)/C=C/c6cccc(CO)c6)C(=O)C=C5C4CC[C@@]3(C)C2C1` (stereo partly drawn) [CP4], the half-maximal inhibitory concentration (IC50) at PRDX1 [1] (setting [8]) is 0.31 ± 0.03 nM; in the experiment with A549 lung cancer cells (setting [9]) it was 0.63 ± 0.04 µM; in [2] (setting [10]) it was greater than 100 µM.

Consider `C=C(/C=C(C)\C=C\C(=O)CC1=CC2=CC=C3C(CC[C@@]4(C)C5C[C@](C)(C(=O)NCc6cccc(CC(O)O)c6)CC[C@]5(C)CC[C@]34C)C2=CC1=O)CO` (stereo partly drawn) [CP5], for which the IC50 was 0.36 ± 0.02 nM on PRDX1 [1] (setting [8]), 0.68 ± 0.06 µM in the experiment with A549 lung cancer cells (setting [9]) and greater than 100 µM in experiment [2] (setting [10]).

In the case of `CC1=C(O)C(=O)C=C2C1=CC=C1[C@@]2(C)CC[C@@]2(C)[C@@H]3C[C@](C)(C(=O)O)CC[C@]3(C)CC[C@]12C` [Celastrol, celastrol], the IC50 on PRDX1 [1] was found to be 510 ± 40 nM; with A549 lung cancer cells (A549, 72 h) it was 1.24 ± 0.08 µM; in [2] (read-out: IC50 (μM) BEAS-2B) it was 0.45 ± 0.03 µM; in experiment [4], 5.76 ± 0.12 µM; in [5], 17.4 ± 0.54 µM; in [6] it was 1.28 ± 0.05 µM. For the same compound, the results for the IC50 (in the experiment on LO2 (normal liver cells); in experiment [7]) were 24 ± 0.69 µM and 1.31 ± 0.06 µM, respectively. This compound gave a Kd on PRDX1 [3] of 320 ± 20 nM.

As a reminder, the IC50 is the concentration needed to halve the response being measured. As usually defined, the Kd is the constant that tells how readily two partners part at equilibrium. Read a low Kd as higher affinity.
